Reference: article PMC8118430, “Utility of novel 2-furanones in synthesis of other heterocyclic compounds having anti-inflammatory activity with dual COX2/LOX inhibition” (Journal of Enzyme Inhibition and Medicinal Chemistry, 2021)
Read-outs that look alike come from different tables or passages of the source.

Experiments:
15-LOX = molecular target: T1, 15-LOX (Glycine max, UniProt P08170); experiment: Lipoxygenase (15-LOX) inhibition assay (Cayman LOX inhibitor screening kit); type: biochemical, soybean; conditions: mean ± SD of three experiments
T1 construct: purchased Cayman Chemical 760700
T1 sequence (P08170 1-839): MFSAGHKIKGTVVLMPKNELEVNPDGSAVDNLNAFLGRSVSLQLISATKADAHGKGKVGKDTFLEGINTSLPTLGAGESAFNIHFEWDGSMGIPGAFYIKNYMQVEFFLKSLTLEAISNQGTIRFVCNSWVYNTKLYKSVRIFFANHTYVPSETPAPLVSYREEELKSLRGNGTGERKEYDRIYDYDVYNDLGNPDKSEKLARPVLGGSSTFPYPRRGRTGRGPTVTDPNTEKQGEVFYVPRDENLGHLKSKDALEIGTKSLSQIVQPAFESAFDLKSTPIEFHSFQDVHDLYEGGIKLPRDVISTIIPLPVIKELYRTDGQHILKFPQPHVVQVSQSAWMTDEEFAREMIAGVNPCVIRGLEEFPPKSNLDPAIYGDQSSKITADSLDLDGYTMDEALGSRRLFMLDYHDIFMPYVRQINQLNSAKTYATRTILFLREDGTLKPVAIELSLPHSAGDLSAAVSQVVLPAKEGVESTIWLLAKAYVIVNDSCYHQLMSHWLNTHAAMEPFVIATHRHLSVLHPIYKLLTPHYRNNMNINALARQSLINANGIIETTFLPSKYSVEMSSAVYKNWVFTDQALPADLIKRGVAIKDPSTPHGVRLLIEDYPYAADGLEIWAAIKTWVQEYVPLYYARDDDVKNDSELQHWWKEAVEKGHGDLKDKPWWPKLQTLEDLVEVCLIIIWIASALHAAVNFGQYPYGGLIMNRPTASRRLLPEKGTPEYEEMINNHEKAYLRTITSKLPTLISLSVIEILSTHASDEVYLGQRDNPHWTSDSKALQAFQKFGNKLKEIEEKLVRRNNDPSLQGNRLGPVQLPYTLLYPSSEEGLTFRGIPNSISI
Method: Briefly, in a 96-well plate, 10 µl of each test compound (dissolved in DMSO) or vehicle were pre-incubated with 90 µl of 15-LOX enzyme. The reaction was started by addition of 10 µl of substrate (AA) and the plate was shaken for at least 5 min. Then, 100 µl of chromogen supplied with the kit was added to each well to stop the enzymatic reaction and develop the colour. The absorbance was measured at 490 nm using microplate reader.
Therefore, the soybean LOX is most like the mammalian 15-LOX[59].

TNF-α = molecular target: T2, TNF-α (Homo sapiens, UniProt P01375); experiment: TNFR2: TNF-α [biotinylated] inhibitor screening assay; type: binding; conditions: mean ± SD of three experiments
T2 construct: purchased BPS Bioscience 79756
T2 sequence (P01375 77-233 limits assumed): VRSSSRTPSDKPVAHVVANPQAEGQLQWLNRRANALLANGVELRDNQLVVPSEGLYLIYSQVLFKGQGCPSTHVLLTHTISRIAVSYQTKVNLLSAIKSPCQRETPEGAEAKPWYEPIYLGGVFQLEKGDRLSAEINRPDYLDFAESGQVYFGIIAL
Method: The assay was performed in triplicates using TNFR2: TNF-α [biotinylated] […] First, TNFR2 is coated on a 96-well plate. Next, biotinylated TNF-α is incubated with TNFR2 on the plate. Finally, the plate was treated with streptavidin-HRP followed by addition of an HRP substrate to produce chemiluminescence, which can be measured using a chemiluminescence reader.

COX-1 = molecular target: T3, COX-1 (Ovis aries, UniProt P05979); experiment: Cyclooxygenase COX-1 inhibition assay (Cayman COX inhibitor screening kit, EIA)
T3 sequence (P05979 25-600): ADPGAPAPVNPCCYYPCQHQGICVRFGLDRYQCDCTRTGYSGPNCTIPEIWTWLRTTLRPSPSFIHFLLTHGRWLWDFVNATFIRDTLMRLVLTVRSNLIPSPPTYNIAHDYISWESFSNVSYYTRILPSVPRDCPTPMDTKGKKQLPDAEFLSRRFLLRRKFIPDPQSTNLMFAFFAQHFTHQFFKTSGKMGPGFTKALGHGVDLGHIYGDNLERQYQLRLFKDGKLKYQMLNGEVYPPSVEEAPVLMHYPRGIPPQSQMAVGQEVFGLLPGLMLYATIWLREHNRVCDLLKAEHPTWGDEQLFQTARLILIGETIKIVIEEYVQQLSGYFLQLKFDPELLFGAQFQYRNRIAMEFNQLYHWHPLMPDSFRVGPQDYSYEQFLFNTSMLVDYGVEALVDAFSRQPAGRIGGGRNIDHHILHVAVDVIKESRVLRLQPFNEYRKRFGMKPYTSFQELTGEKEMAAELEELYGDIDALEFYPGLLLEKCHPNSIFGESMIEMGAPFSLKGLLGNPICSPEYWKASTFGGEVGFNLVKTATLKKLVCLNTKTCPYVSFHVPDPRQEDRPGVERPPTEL
Method: (§1) Tested compounds were dissolved in DMSO. […] The COX inhibitor screening assay depends on direct measurement of the amount of PG2α produced in the COX reaction. […] Enzyme catalysis was terminated by addition of 50 µl 1 M HCl and 100 µl of the saturated stannous chloride solution. The PGs are quantified by enzyme immunoassay (EIA) at 410 nm.
(§2) Thus, the newly synthesised compounds were tested for their anti-inflammatory activity against isozymes COX-1 and COX-2, which were determined by the COX-catalysed transformation of AA into PGH2 that was reduced to PGF2α and detected by the EIA[53], as shown in Table 1.

COX-2 = molecular target: T4, COX-2 (Homo sapiens, UniProt P35354); experiment: Cyclooxygenase COX-2 inhibition assay (Cayman COX inhibitor screening kit, EIA); conditions: for Selectivity indexes (SI): SI = IC50 COX-1/COX-2 ratios
T4 sequence (P35354 18-604): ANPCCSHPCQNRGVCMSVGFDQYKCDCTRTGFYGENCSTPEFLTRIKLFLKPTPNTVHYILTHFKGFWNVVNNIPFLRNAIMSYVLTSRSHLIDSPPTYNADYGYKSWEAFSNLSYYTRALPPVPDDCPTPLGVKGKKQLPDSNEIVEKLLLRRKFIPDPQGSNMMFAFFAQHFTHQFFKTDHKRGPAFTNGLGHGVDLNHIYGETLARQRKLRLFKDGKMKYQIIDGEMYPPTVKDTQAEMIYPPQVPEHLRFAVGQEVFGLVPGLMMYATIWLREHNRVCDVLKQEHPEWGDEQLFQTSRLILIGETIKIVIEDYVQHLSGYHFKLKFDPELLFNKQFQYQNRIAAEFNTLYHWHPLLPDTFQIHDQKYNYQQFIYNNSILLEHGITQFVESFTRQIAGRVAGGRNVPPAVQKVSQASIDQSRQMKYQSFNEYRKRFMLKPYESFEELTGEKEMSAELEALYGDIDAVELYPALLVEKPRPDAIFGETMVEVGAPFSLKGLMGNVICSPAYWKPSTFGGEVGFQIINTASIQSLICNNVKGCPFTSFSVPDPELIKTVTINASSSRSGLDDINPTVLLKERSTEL
Method: as §1, §2

[1] = read-out: COX1 IC50, mean ± SD of three experiments
[2] = read-out: COX 2 IC50, mean ± SD of three experiments

`CN(C)c1ccc(C=C(CC(=O)c2ccc(Cl)c(Cl)c2)C(=O)NCc2ccccc2)cc1` [Compound 4c, N-benzyl-2-(4-dimethylaminobenzylidene]-4-(3,4-dichlorophenyl)-4-oxobutanamide] gave an IC50 (15-LOX) of 4.67 ± 0.06 µM, a melting point of 241 to 243 °C and an IC50 (TNF-α) of 0.00547 ± 0.00012 µM. For the same molecule, the IC50 (COX-1) was 11.9 ± 0.1 µM, the IC50 (COX-2) was 0.05 µM and the “Selectivity indexes (SI)” value (COX-2) was 238.00.

Molecule `CN(C)c1ccc(C=C2C=C(c3ccc(Cl)c(Cl)c3)OC2=O)cc1` [Compound 2c, 5-(3,4-Dichlorophenyl)3-(4-dimethylaminobenzylidene)-furan-2-one] has an IC50 (15-LOX) of 6.13 ± 0.12 µM, a melting point of 204 to 206 °C and an IC50 (TNF-α) of 0.0082 ± 0.0001 µM. For the same molecule, the IC50 (COX-1) was 3.93 ± 0.06 µM, the “times less active than the reference drug indomethacin as COX-1 inhibitor” value (COX-1; ratio of COX-1 IC50 values) was 39 and the IC50 (COX-2) was 0.42 ± 0.02 µM. The “Selectivity indexes (SI)” value (COX-2) was 9.36.

`CN(C)c1ccc(Cc2cc(-c3ccc(Cl)c(Cl)c3)n[nH]c2=O)cc1` [Compound 7c, 3-(3,4-Dichlorophenyl)-5-[(4-dimethylaminopheny)l-methyl]-1H-pyridazin-6-one] gave an IC50 (15-LOX) of 4.67 ± 0.06 µM, an IC50 (TNF-α) of 0.00757 ± 6e-05 µM and an IC50 (COX-1; [1]) of 8.33 ± 0.06 µM. The “Selectivity indexes (SI)” value (COX-2) was 69.42 and the IC50 (COX-2; [2]) was 0.12 ± 0.01 µM.

In the case of `NNC(=O)C(=Cc1cccc([N+](=O)[O-])c1)CC(=O)c1ccc(Cl)c(Cl)c1` [Compound 6b, 4-(3,4-Dichlorophenyl)-2-(3-nitrobenzylidene)-4-oxo-butanehydrazide], the IC50 (15-LOX) is reported as 2.47 ± 0.06 µM, the melting point is reported as 160 to 162 °C and the IC50 (TNF-α) is reported as 0.0041 ± 0.0001 µM. The IC50 (COX-1) was 10.1 ± 0.15 µM, the IC50 (COX-2) was 0.08 µM and the “Selectivity indexes (SI)” value (COX-2) was 125.88. For the same molecule, the “COX-2 inhibition, in words (SAR discussion)” value (COX-2; qualitative statement) was “high activity”.

`O=c1[nH]nc(-c2ccc(Cl)c(Cl)c2)cc1Cc1cccc([N+](=O)[O-])c1` [Compound 7b, 3-(3,4-Dichlorophenyl)-5-[(3-nitropheny)l-methyl]-1H-pyridazin-6-one] showed an IC50 (15-LOX) of 5.87 ± 0.06 µM, an IC50 (TNF-α) of 0.00817 ± 6e-05 µM and an IC50 (COX-1; [1]) of 6.67 ± 0.12 µM. For the same molecule, the “Selectivity indexes (SI)” value (COX-2) was 26.68 and the IC50 (COX-2; [2]) was 0.25 ± 0.01 µM.

`O=C1NN(c2ccccc2)C(c2ccc(Cl)c(Cl)c2)=CC1=Cc1cccc([N+](=O)[O-])c1` [Compound 5b, 6-(3,4-Dichlorophenyl)-4-(3-nitrobenzylidene)-1-phenyl-1,4-dihydropyridazin-3(2H)-one] gave an IC50 (15-LOX) of 2.43 ± 0.12 µM, a melting point of over 300 °C and an IC50 (TNF-α) of 0.00327 ± 0.00012 µM. For the same molecule, the IC50 (COX-1) was 13 ± 0.1 µM, the IC50 (COX-2) was 0.04 µM and the “Selectivity indexes (SI)” value (COX-2) was 325.00.

`O=C1NN(c2ccccc2)C(c2ccc(Cl)c(Cl)c2)=CC1=Cc1ccccc1[N+](=O)[O-]` [Compound 5a, 6-(3,4-Dichlorophenyl)-4-(2-nitrobenzylidene)-1-phenyl-1,4-dihydropyridazin-3(2H)-one] gave an IC50 (15-LOX) of 2.7 ± 0.95 µM, a melting point of over 300 °C and an IC50 (TNF-α) of 0.00493 ± 6e-05 µM. The IC50 (COX-1) was 12.73 ± 0.12 µM, the IC50 (COX-2) was 0.06 µM and the “Selectivity indexes (SI)” value (COX-2) was 212.17.

`CN(C)c1ccc(C=C(CC(=O)c2ccc(Cl)c(Cl)c2)C(=O)NN)cc1` [Compound 6c, 4-(3,4-Dichlorophenyl)-2-(4-dimethylaminobenzylidene)-4-oxo-butanehydrazide] gave an IC50 (15-LOX) of 3.17 ± 0.06 µM, a melting point of 154 to 156 °C and an IC50 (TNF-α) of 0.00617 ± 6e-05 µM. The IC50 (COX-1) was 8.83 ± 0.06 µM, the IC50 (COX-2) was 0.1 ± 0.01 µM and the “Selectivity indexes (SI)” value (COX-2) was 88.30.

For `O=c1[nH]nc(-c2ccc(Cl)c(Cl)c2)cc1Cc1ccccc1[N+](=O)[O-]` [Compound 7a, 3-(3,4-Dichlorophenyl)-5-[(2-nitropheny)l-methyl]-1H-pyridazin-6-one], the IC50 (15-LOX) was 5.47 ± 0.12 µM, the IC50 (TNF-α) was 0.00853 ± 0.00012 µM and the IC50 (COX-1; [1]) was 7.03 ± 0.15 µM. The “Selectivity indexes (SI)” value (COX-2) was 41.35 and the IC50 (COX-2; [2]) was 0.17 ± 0.01 µM.

Molecule `O=C(CC(=Cc1cccc([N+](=O)[O-])c1)c1n[nH]c(=S)o1)c1ccc(Cl)c(Cl)c1` [Compound 9b, 1-(3,4-Dichlorophenyl)-4-(3-nitrophenyl)-3-(2-thioxo-4,5-dihydro-1,3,4-oxadiazol-5-yl)but-3-en-1-one] has an IC50 (15-LOX) of 1.63 ± 0.15 µM, an IC50 (TNF-α) of 0.00433 ± 0.00012 µM and an IC50 (COX-1) of 10.4 ± 0.12 µM.
